pIC50, pKi: −log10 of the molar value.
Key:
human SH-PTP2 SH2 domain = target: T1, human SH-PTP2 SH2 domain (Homo sapiens, UniProt Q06124); assay: SH2 domain / pY peptide binding assay (ELISA-based, 96 well plate), SH-PTP2 SH2; conditions: for pKi: Ki calculated from IC50 by the expanded equation, Table II; for pIC50: cloned human SH2 domain fusion protein, 0.1 uM biotinylated pY peptide, Table I
T1 construct: SH2 domain of human SH-PTP2 (amino acids 1-106); made in house; host or cells: E. coli (pGEX-2T)
T1 sequence (Q06124 1-106): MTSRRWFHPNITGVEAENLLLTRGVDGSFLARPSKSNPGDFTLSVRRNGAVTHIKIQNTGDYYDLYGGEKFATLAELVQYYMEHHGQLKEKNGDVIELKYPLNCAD
Protocol: (§1) The inhibitory activity of compounds at the different human SH2 domains was determined in vitro using SH2 domains expressed as fusion proteins in E. coli. The SH2 domains used herein were the human forms of the src SH2 domain, Grb2 SH2 domain, lck SH2 domain, fyn SH2 domain, SH-PTP2 SH2 domain, p85 SH2 domain and hcp SH2 domain.
(§2) Fusion proteins having the structure GST-X-SH2 were prepared as described in the GST gene fusion kit system available from Pharmacia (New Jersey). GST is the tagging sequence glutathione s-transferase epitope (SEQ ID NO: 8) for fyn, Grb2 and SH-PTP2 and is the tagging sequence glutathione s-transferase epitope (SEQ ID NO: 9) for p85. SH2 refers to the SH2 domains of fyn, Grb2, p85 and SH-PTP2 which were expressed and purified using glutathione Sepharose 4B (Pharmacia) according to "Current Protocols in Molecular Biology", ed. FM Ausubel et al., pub. John Wiley and Sons, Inc., (1995), p 16.7.1. X is an appropriate linker, preferably of 6 to 21 base pairs, used to keep the SH2 construct in frame and complement cloning. As such, the sequence of X is not critical. One skilled in the art can readily construct the appropriate linker. The DNA sequence encoding each GST-X-SH2 fusion protein was designed such that the indicated restriction sites (BamH1 and EcoRI) flank the SH2 region. The vector used in the instant experiments was the E. coli expression vector pGEX-2T (Pharmacia) for fyn, Grb2 and SH-PTP2, and pGEX-3X (Pharmacia) for p85. Each of these vectors result in SH2 constructs having additional C-terminal amino acids as described below.
Human SH-PTP2 SH2 domain: The sequence encoding the SH2 domain of human SH-PTP2 (amino acids 1-106))(Bastien, L. et al., Biochem. Biophys. Res. Commun. 196, 124-133 (1993)) was cloned into the BamHI and EcoRI sites of the expression vector pGEX-2T. The SH2 domain including the additional C-terminal amino acids glutamine-phenylalanine-isoleucine-valine-threonine-aspartate (SEQ ID NO: 12) was cloned by PCR techniques known to those skilled in the art to yield the expressed fusion protein GST-X-SH-PTP2.
(§3) The binding assays for the SH2 domains and pY peptides were performed in an ELISA-based 96 well plate assay. In Millipore 96 well filter plates, hydrophilic Durapore® (pore size 0.65um Cat. No. MADVN6550), was added 2 ul (50% suspension) of Protein-G Sepharose (available from Pharmacia of N.J. Cat. No. 17-0618-01) and either 2 ul of 2 mg/ml of MAB178. (for gp120/SH2 domain fusion proteins src, lck and hcp) or 0.25 ul of anti-GST polyclonal antisera (available from Pharmacia of N.J.) (for GST/SH2 domain fusion proteins fyn, Grb2, p85 and SH-PTP2). 10 pmol of the subject SH2 domain fusion protein were added to their respective wells. The volume was brought to 100 ul with TBS-T (tris buffered saline plus 0.05% tween-20), incubated and shaken at room trmperature for 1 hr. then washed 1x with TBS-T (4°C). 90 ul of TBS-T were then added to each well. Specific pY biotinylated peptides were diluted to a concentration of 1.0 uM in TBS-T (these peptides can be obtained from Bachem Bioscience of Pennsylvania, Genosys Biotechnologies of Texas and California Peptide Research of California). 10 ul was aliquoted per well to yield a final concentration of 0.1 uM (approx, the Kd for each SH2 domain/peptide pair) and a final volume of 100 ul. The assay plates were incubated until equilibrium binding was attained (3 hr at 4°C with shaking). The assay plates were washed 2 X per well TBS-T (4°C), then 100 ul of SABC (Strepavidin biotinylated horseradish peroxidase complex, available from the Zymed corporation of California cat. no. 93-0043, 1 drop reagent A (streptavidin) and 1 drop of reagent B (AH-biotin conjugated-horseradish peroxidase) per 10 ml of TBS-T, incubated at 37°C for 30 minutes, then cooled to 4°C) was added per well, then incubated at 4°C for 30-60 minutes. The plates were then washed 4 X with TBS-T (4°C) (250 ul/well)/wash). […]

human fyn SH2 domain = target: T2, human fyn SH2 domain (Homo sapiens, UniProt P06241); assay: SH2 domain / pY peptide binding assay (ELISA-based, 96 well plate), fyn SH2; conditions: for pKi: Ki calculated from IC50 by the expanded equation, Table II; for pIC50: cloned human SH2 domain fusion protein, 0.1 uM biotinylated pY peptide, Table I
T2 construct: SH2 domain of human fyn (amino acids 143-252); made in house; host or cells: E. coli (pGEX-2T)
T2 sequence (P06241 143-252): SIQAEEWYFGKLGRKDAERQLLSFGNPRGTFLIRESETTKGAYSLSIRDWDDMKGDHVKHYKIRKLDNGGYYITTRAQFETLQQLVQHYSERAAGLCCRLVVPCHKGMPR
Protocol: as §1, §2
The sequence encoding the SH2 domain of human fyn (amino acids 143-252) (Yamamoto, T. et al. Proc. Natl. Acad. Sci. USA 83, 5459-5463 (1986)) was cloned into the BamHI and EcoRI sites of the expression vector pGEX-2T. The SH2 domain including the additional C-terminal amino acids leucine-threonine-asparagine-serine-serine (SEQ ID NO: 10) was cloned by PCR techniques known to those skilled in the art to yield the expressed fusion protein GST-X-fyn.
as §3

pKi (human SH-PTP2 SH2 domain) | pIC50 (human SH-PTP2 SH2 domain) | pKi (human fyn SH2 domain) | pIC50 (human fyn SH2 domain) | Molecule
< 3.00 | < 3.52 | < 3.00 | < 3.52 | Cc1nc2sc3c(c2c2[nH][nH]c(=O)c12)CCC1(C3)OCCO1 [Compound 3, 8,8-Ethylenedioxy-2,3,7,8,9,10-hexahydro-4-methyl-1H-benzo[b]thieno[2,3-b]pyrazolo[3,4-d]pyridin-3-one]
 |  | < 3.00 | < 3.52 | Cc1ccc(C(=O)c2ccc(C(=O)c3ccc(CC=O)cc3)cc2)cc1 [Compound 4, 4-[4-(4-Methylbenzoyl)benzoyl]phenylacetaldehyde]
< 3.00 | < 3.52 | < 3.00 | < 3.52 | Cc1nnc(SCC2=C(C(=O)O)N3C(=O)[C@@H](NC(=O)C(N)c4ccc(C(=O)O)cc4)[C@H]3SC2)s1 (stereo partly drawn) [Compound 1, 7-[D,L-α-Amino-α-(4-carboxyphenyl)acetamido]-3-[2-(5-methyl-1,3,4-thiadiazolyl)thiomethyl]Δ^3-cephem-4-carboxylic Acid]
< 3.00 | < 3.52 | < 3.00 | < 3.52 | CCCNC(=O)[C@H]1CC[C@H](CNC(=O)/C=C/c2ccc(C=O)cc2)CC1 [Compound 9, 4-formyl-E-cinnamido-trans-4-methyl-cyclohexyl-N-(propyl) carboxamide]
< 3.00 | < 3.52 | < 3.00 | < 3.52 | Cc1nc2sc3c(c2c2c1c(=O)[nH]n2C)CCC1(C3)OCCO1 [Compound 5, 1,4-Dimethyl-8,8-ethylenedioxy-2,3,7,8,9,10-hexahydro-1H-benzo[b]thieno[2,3-b]pyrazolo[3,4-d]pyridin-3-one]
< 3.00 | < 3.52 | < 3.00 | < 3.52 | CCCCCCNC(=O)[C@H]1CC[C@H](CNC(=O)c2ccc([N+](=O)[O-])cc2)CC1 [Compound 7, 4-nitro-benzamido-trans-4-methyl-cyclohexyl-N-hexyl carboxamide]
< 3.00 | < 3.52 | < 3.00 | < 3.52 | Cc1nc2sc3c(c2c2[nH][nH]c(=O)c12)CCCC3 [Compound 10, 2,3,7,8,9,10-Hexahydro-4-methyl-1H-benzo[b]thieno[2,3-b]pyrazolo[3,4-d]pyridin-3-one]

Molecule | pKi (human SH-PTP2 SH2 domain) | pIC50 (human SH-PTP2 SH2 domain) | pKi (human fyn SH2 domain) | pIC50 (human fyn SH2 domain)
N[C@@H](Cc1cc(Br)c(Oc2ccc(O)c(Cc3ccc(O)nn3)c2)c(Br)c1)C(=O)O [Compound 2, L-3,5-Dibromo-3'-(6-oxo-3(1H)-pyridazinylmethyl)-thyronine] | < 3.00 | < 3.52 | < 3.00 | < 3.52
4-acetamido-benzamido-trans-4-methyl-cyclohexyl-N-1-(amino-R-2-(methoxy methyl)-pyrrolidine) carboxamide [Compound 8] | < 3.00 | < 3.52 | < 3.00 | < 3.52
